Laboratory results from patent EP4810052A2, “HCRHR2 SELECTIVE POLYPEPTIDES” (Gubra A/S, priority 2023, dated 2026).
“Also recorded” adds a separate entry of the source. Marks after values point to notes of the source that are not given here. Starred links: 1 amine or outer side, 2 acyl side, 3 side chain; linkers in the order of their positions; H or OH if unused. Non-standard residues stand in square brackets, D forms with d. Residues, ends and D or L forms follow the SMILES beside them. Groups on a side chain read outwards from the residue. *: point of attachment. C20 diacid = O=C(O)CCCCCCCCCCCCCCCCCCC(=O)*; γGlu = O=C(O)[C@H](CCC(=O)[*:2])N[*:1]; NMeI = CC[C@H](C)[C@H](NC)C(=O)O; Nle = CCCC[C@H](N)C(=O)O; AEEA = NCCOCCOCC(=O)O; Aib = CC(C)(N)C(=O)O

Columns and labels:
[1] = Body mass and body fat content in mouse model of diet-induced obesity (DIO); type: in vivo; conditions: DIO mice; for relative body weight: 28 days, compared to vehicle; for Blood HbA1c / M. Gastrocnemius / M. Soleus / Body weight at termination / Fat mass change from baseline / Lean mass change from baseline / Relative body weight change at termination: Table 17 study; for Body weight at termination / Fat mass change from baseline / Lean mass change from baseline / Relative body weight change at termination: ± SEM
Method: SEQ ID NO: 3, SEQ ID NO: 6, SEQ ID NO: 238, SEQ ID NO: 16 and SEQ ID NO: 215 were assessed for their ability to reduce body mass and body fat content in a mouse model of diet-induced obesity (DIO).
Male C57BL/6JRj mice were obtained from JanVier (JanVier Labs, France) at 5 weeks of age. The animals were group-housed during obesity induction and then single housed 2 weeks prior to study start. They were housed under a 12/12 h dark-light cycle, light off at 3 PM. Room temperature was controlled to 22°C ± 1°C, with 60 % ± 20% humidity. For 22-23 weeks prior to treatment start and throughout the study, the animals had ad libitum access to high-fat diet (60% kcal fat, D12492, Research Diets) and tap water.
The animals were randomized according to lean mass (EchoMRI) and body weight. Animals were dosed subcutaneously […] for 30-32 days. In study 1, the animals were dosed with vehicle or SEQ ID NO: 3 (10, 30, 60 or 100 nmol/kg). In study 2, the animals were dosed with vehicle or SEQ ID NO: 6 (10 or 30 nmol/kg), SEQ ID NO: 238 (10 or 30 nmol/kg), SEQ ID NO: 16 (10 or 30 nmol/kg), SEQ ID NO: 215 (10 or 30 nmol/kg) or SEQ ID NO: 3 (30 nmol/kg).
Body weight and food intake were recorded daily until day 28 and body composition evaluated on day 26 using EchoMRI. At termination, blood for HbA1c analyses were collected and M. gastrocnemius and M. soleus were weighed.
Statistical significance was evaluated using One-way analysis of variance with Dunnett's multiple comparison test. P < 0.05 was considered statistically significant.

[2] = target: T1, hCRHR2a (Homo sapiens, UniProt Q13324); assay: cAMP potency, transiently transfected CHO-K1 cells, hCRHR2a; type: cell-based; conditions: transiently transfected CHO-K1, average n=3; read-out: Transient cell system EC50 (nM) hCRHR 2a
T1 construct: DYK (FLAG); host or cells: CHO-K1, transiently transfected
T1 sequence (Q13324 1-411): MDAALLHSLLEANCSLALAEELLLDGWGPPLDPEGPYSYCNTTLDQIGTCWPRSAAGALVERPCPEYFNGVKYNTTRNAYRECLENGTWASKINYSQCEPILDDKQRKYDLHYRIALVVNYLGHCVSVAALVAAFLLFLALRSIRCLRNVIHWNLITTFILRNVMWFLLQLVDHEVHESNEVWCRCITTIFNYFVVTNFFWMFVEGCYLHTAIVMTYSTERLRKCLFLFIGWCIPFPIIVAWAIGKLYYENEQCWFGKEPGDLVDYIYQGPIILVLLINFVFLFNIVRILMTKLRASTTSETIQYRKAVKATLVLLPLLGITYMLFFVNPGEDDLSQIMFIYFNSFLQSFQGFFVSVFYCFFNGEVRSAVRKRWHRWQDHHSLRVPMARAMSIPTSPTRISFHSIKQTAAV

[3] = target: T2, hCRHR2b (Homo sapiens, UniProt Q13324); assay: cAMP potency, transiently transfected CHO-K1 cells, hCRHR2b; type: cell-based; conditions: transiently transfected CHO-K1, average n=3; read-out: Transient cell system EC50 (nM) hCRHR 2b
T2 construct: DYK (FLAG); host or cells: CHO-K1, transiently transfected
T2 sequence (Q13324 1-438 isoform Q13324-2): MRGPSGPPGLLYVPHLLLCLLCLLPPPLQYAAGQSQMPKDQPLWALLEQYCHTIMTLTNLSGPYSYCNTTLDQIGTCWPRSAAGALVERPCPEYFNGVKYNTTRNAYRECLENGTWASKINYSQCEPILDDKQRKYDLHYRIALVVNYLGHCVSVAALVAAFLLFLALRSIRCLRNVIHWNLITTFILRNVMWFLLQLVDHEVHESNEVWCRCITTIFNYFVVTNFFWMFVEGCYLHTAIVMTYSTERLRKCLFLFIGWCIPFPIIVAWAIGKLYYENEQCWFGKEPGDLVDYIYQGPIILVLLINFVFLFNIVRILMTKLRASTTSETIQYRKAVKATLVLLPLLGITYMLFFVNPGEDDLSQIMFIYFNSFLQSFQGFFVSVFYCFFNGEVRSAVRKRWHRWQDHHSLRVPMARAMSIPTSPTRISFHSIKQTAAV

[4] = target: T3, mCRHR2 (Mus musculus, UniProt Q60748); assay: cAMP potency, transiently transfected CHO-K1 cells, mCRHR2; type: cell-based; conditions: transiently transfected CHO-K1, average n=3; read-out: Transient cell system EC50 (nM) mCRH R2
T3 construct: DYK (FLAG); host or cells: CHO-K1, transiently transfected
Method: Selected peptides were tested for potency on different species (mouse, rat, porcine) using transiently transfected CHO-K1 cells using the general procedure.

[5] = target: T4, hCRHR1 (Homo sapiens, UniProt P34998); assay: cAMP potency, transiently transfected CHO-K1 cells, hCRHR1; type: cell-based; parameters: DYK (FLAG); host or cells: CHO-K1, transiently transfected; conditions: transiently transfected CHO-K1, average n=3; read-out: Transient cell system EC50 (nM) hCR HR1
T4 sequence (P34998 24-415): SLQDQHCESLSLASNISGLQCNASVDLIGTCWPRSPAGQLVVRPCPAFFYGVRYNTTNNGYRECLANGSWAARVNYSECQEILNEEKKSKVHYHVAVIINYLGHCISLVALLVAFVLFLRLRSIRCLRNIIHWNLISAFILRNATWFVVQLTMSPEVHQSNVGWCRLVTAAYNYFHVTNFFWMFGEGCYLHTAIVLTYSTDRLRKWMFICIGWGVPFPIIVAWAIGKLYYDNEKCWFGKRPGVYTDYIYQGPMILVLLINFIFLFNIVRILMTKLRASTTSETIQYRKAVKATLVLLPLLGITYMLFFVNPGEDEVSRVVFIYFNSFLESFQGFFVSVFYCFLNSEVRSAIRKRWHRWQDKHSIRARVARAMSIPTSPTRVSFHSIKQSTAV

T3 sequence (Q60748 1-431 isoform Q60748-2): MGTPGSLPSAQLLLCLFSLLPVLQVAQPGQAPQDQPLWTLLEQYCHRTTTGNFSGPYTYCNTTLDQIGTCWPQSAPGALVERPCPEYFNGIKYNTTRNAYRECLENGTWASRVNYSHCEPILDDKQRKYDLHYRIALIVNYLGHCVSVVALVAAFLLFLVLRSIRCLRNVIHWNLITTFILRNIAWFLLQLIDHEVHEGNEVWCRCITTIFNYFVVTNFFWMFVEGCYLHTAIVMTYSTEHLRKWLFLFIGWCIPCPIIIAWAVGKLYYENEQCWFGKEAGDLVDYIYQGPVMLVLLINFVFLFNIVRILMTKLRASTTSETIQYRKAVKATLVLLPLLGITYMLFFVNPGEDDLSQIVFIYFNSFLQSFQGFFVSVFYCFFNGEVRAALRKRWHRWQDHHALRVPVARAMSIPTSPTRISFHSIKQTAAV

Structure (SMILES) | relative body weight [1] | Blood HbA1c ([1]; 10 nmol/kg) | M. Gastrocnemius ([1]; 10 nmol/kg) | M. Soleus ([1]; 10 nmol/kg) | Body weight at termination ([1]; 10 nmol/kg) | Fat mass change from baseline ([1]; 10 nmol/kg) | Lean mass change from baseline ([1]; 10 nmol/kg) | Relative body weight change at termination ([1]; 10 nmol/kg) | Blood HbA1c ([1]; 30 nmol/kg) | M. Gastrocnemius ([1]; 30 nmol/kg) | M. Soleus ([1]; 30 nmol/kg) | Body weight at termination ([1]; 30 nmol/kg) | Fat mass change from baseline ([1]; 30 nmol/kg) | Lean mass change from baseline ([1]; 30 nmol/kg) | Relative body weight change at termination ([1]; 30 nmol/kg) | EC50 [2] | EC50 [3] | EC50 [4] | also measured
CC[C@H](C)[C@H](NC)C(=O)N[C@H](C(=O)N[C@@H](CC(C)C)C(=O)N[C@@H](CO)C(=O)N[C@@H](CC(C)C)C(=O)N[C@@H](CC(=O)O)C(=O)N[C@H](C(=O)N1CCC[C@H]1C(=O)N[C@H](C(=O)NCC(=O)N[C@@H](CC(C)C)C(=O)N[C@@H](CC(C)C)C(=O)N[C@@H](CCC(N)=O)C(=O)N[C@H](C(=O)N[C@@H](CC(C)C)C(=O)N[C@@H](CC(C)C)C(=O)N[C@@H](CCC(=O)O)C(=O)N[C@@H](CCC(N)=O)C(=O)N[C@@H](C)C(=O)N[C@@H](CCCNC(=N)N)C(=O)N[C@@H](C)C(=O)N[C@@H](CCCNC(=N)N)C(=O)N[C@@H](C)C(=O)N[C@@H](C)C(=O)N[C@@H](CCCNC(=N)N)C(=O)N[C@@H](CCC(=O)O)C(=O)N[C@@H](CCC(N)=O)C(=O)N[C@@H](C)C(=O)N[C@@H](CCCCNC(=O)COCCOCCNC(=O)COCCOCCNC(=O)CC[C@H](NC(=O)CC[C@H](NC(=O)CCCCCCCCCCCCCCCCCCC(=O)O)C(=O)O)C(=O)O)C(=O)N[C@H](C(=O)N[C@@H](CC(N)=O)C(=O)NC(C)(C)C(=O)N[C@@H](CCC(=O)O)C(=O)N[C@H](C(=O)N[C@@H](CC(C)C)C(=O)N[C@@H](C)C(=O)N[C@@H](CCC(=O)O)C(=O)N[C@H](C(N)=O)C(C)C)[C@@H](C)CC)[C@@H](C)O)[C@@H](C)CC)[C@@H](C)CC)C(C)C)C(C)C [SEQ ID NO: 16] (H-[NMeI]VLSLDVPIGLLQILLEQARARAAREQAK([AEEA-AEEA-γGlu-γGlu-C20 diacid])TN[Aib]EILAEV-NH2) | reduce body weight; also recorded: prolonged dose-dependent reduction | 4.4 ± 0.1% | 0.19 ± 0.003 g | 0.013 ± 0.0004 g | 44 ± 1.1 g | -5.6 ± 0.5 g | 0.6 ± 0.3 g | 91.1 ± 1.2 % | 4.1 ± 0.1 % | 0.19 ± 0.002 g | 0.013 ± 0.0009 g | 38.3 ± 0.9 g | -10.5 ± 0.6 g | -0.6 ± 0.3 g | 79.9 ± 1.4 % | 0.025 nM | 0.012 nM | 0.0049 nM | EC50 [5]: > 1000 nM
CCCC[C@H](NC(=O)[C@@H](NC(=O)[C@H](CCC(=O)O)NC(=O)C(C)(C)NC(=O)[C@H](CC(N)=O)NC(=O)[C@@H](NC(=O)[C@H](CCCCNC(=O)COCCOCCNC(=O)COCCOCCNC(=O)CC[C@H](NC(=O)CC[C@H](NC(=O)CCCCCCCCCCCCCCCCCCC(=O)O)C(=O)O)C(=O)O)NC(=O)[C@H](C)NC(=O)[C@H](CCC(N)=O)NC(=O)[C@H](CCC(=O)O)NC(=O)[C@H](CCCNC(=N)N)NC(=O)[C@H](C)NC(=O)[C@H](C)NC(=O)[C@H](CCCNC(=N)N)NC(=O)[C@H](C)NC(=O)[C@H](CCCNC(=N)N)NC(=O)[C@H](C)NC(=O)[C@H](CCC(N)=O)NC(=O)[C@H](CO)NC(=O)[C@H](CC(C)C)NC(=O)[C@H](CC(C)C)NC(=O)[C@@H](NC(=O)[C@H](CCC(N)=O)NC(=O)[C@H](CC(C)C)NC(=O)[C@H](CC(C)C)NC(=O)CNC(=O)[C@@H](NC(=O)[C@@H]1CCCN1C(=O)[C@@H](NC(=O)[C@H](CC(=O)O)NC(=O)[C@H](CC(C)C)NC(=O)[C@H](CO)NC(=O)[C@H](CC(C)C)NC(=O)[C@@H](NC(=O)[C@@H](NC)[C@@H](C)CC)C(C)C)C(C)C)[C@@H](C)CC)[C@@H](C)CC)[C@@H](C)O)[C@@H](C)CC)C(=O)N[C@@H](C)C(=O)N[C@@H](CCC(=O)O)C(=O)N[C@H](C(N)=O)C(C)C [SEQ ID NO: 215] (H-[NMeI]VLSLDVPIGLLQILLSQARARAAREQAK([AEEA-AEEA-γGlu-γGlu-C20 diacid])TN[Aib]EI[Nle]AEV-NH2) | prolonged dose-dependent reduction | 4.3 ± 0.1 % | 0.19 ± 0.002* ** g | 0.012 ± 0.0005 g | 40.5 ± 1.2 g | -8.7 ± 0.5 g | 0.1 ± 0.5 g | 85.5 ± 1.3 % | 4.4 ± 0.03 % | 0.18 ± 0.003 g | 0.012 ± 0.0005 g | 38.9 ± 1.1 g | -9.9 ± 0.7 g | -0.5 ± 0.3 g | 81.8 ± 1.9 % | 0.013 nM | 0.016 nM | 0.004 nM | body weight loss compared to SEQ ID NO: 16 ([1]; 10 nmol/kg, Fig. 5): relative higher body weight loss; relative body weight ([1]; listed as 215): reduce body weight
